The results in this text go back to US20210057047A1, “IN-SILICO METHOD FOR DESIGNING A (D)-POLYPEPTIDE LIGAND” (THE GOVERNING COUNCIL OF THE UNIVERSITY OF TORONTO, priority 2018, published 2021).

Square brackets hold non-standard residues; d marks the D form. Peptide text beside a SMILES is read from it.

One data set has as its target T1, Proteinase K (ProtK) (Parengyodontium album, UniProt P06873).
T1 construct: purchased Bioshop
As to the kind of experiment: in vitro. The data set is classed as in vitro ADME. How it is done: Stocks of 20 μM peptide in 200 μL total volume (10 mM Tris-base, 10 mM NaCl, pH 7.4) were supplemented with 5 μM CaCl2) and 30 uL removed for the untreated T0 sample. Proteinase K (ProtK, Bioshop) was then added to a final concentration of 100 μg/mL. Samples were incubated at 37° C. and 30 μL removed after each time point and protease activity blocked by the addition of 10 mM PMSF (200 mM stock dissolved in isopropanol). Protease inactivated samples were frozen at −20° C. until further use. Digestions were repeated three times. Frozen samples were supplemented with 8 μL sample loading buffer (4× NuPAGE, ThermoFisher Scientific), boiled ([…]) for 10 minutes, and centrifuged (12 000 rpm, 10 min) prior to loading the gel (12% NuPAGE Bis-Tris (ThermoFisher Scientific) with MES running buffer). Gels were run at 200 V for […] and stained using Coomassie Brilliant Blue dye. Densitometry of bands was determined using ImageJ software (40) with back ground subtraction. All samples were normalized to their respective untreated sample (T0).

Another data set deals with T2, RLN receptor (RXFP1) (Homo sapiens, UniProt Q9HBX9).
T2 construct: expressed in transfected cells; host or cells: HEK293
T2 sequence (Q9HBX9 1-757): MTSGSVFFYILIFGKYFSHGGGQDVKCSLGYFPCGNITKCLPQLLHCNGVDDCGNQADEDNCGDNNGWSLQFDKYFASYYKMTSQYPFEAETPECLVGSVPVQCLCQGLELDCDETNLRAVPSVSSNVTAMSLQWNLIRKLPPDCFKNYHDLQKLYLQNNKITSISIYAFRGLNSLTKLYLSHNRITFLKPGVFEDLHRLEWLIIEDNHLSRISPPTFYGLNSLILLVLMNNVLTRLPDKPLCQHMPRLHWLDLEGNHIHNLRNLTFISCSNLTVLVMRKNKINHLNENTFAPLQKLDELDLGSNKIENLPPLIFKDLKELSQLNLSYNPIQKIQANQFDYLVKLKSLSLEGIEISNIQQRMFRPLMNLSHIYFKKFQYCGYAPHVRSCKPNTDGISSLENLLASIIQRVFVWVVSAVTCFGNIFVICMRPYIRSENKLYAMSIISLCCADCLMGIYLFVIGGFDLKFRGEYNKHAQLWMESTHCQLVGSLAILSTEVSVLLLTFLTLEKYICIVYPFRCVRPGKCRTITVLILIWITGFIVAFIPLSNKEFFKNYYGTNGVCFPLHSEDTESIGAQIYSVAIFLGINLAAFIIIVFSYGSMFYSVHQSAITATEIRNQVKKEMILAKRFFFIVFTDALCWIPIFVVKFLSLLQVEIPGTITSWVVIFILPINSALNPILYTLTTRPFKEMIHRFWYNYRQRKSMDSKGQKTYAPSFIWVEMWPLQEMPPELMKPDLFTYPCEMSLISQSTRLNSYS
Nature of the data set: CRE-luciferase reporter assay in HEK293 cells stably expressing RXFP1. It is filed as cell-based. Here is the method: This activates protein kinase A (PKA) to phosphorylate and activate cAMP response element-binding protein (CREB). […] All of the (L)-RLN was degraded in about 1 hr, while about 90% of the (D)-analog was still detectable at 6 hours.
FIG. 15 is a series of charts and experiments showing the activity and protease degradation of (D)-RLN_1 (non-mutated) and (D)-RLN_2 (mutated) polypeptides. (A) HEK293 cells stably expressing RXFP1 and CRE-luciferase were stimulated with different concentrations of (D)-RLN_1 and (D)-RLN_2 peptides. Luciferase activity was measured. The experiments were performed in triplicate. (B) Sample gel images of (L) and (D)-RLN peptides treated with Proteinase K (ProtK) over 5 hours. Gels were stained with Coomassie Brilliant Blue dye and band densitometry calculated using ImageJ (40) with background subtraction. (C) Quantification of remaining peptide post ProtK treatment in 60 min intervals. Intensities of peptide bands were normalized to the intensity of the untreated peptide (T0) and converted to a percentage relative to T0. […] Error bars are reporting standard error. Data represent the average of 3 independent experiments.

T1 sequence (P06873 106-384): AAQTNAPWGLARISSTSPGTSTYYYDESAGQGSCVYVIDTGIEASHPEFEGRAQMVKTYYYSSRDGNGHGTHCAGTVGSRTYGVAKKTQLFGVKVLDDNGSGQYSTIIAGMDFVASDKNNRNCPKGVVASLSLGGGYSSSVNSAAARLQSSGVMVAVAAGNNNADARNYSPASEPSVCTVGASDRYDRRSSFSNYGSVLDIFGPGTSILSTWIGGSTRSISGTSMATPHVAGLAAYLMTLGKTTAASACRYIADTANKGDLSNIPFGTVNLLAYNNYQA

`CC[C@@H](C)[C@@H](NC(=O)[C@@H](CC(C)C)NC(=O)[C@@H](CC(C)C)NC(=O)[C@@H](CCC(=O)O)NC(=O)[C@@H](CCCCN)NC(=O)[C@@H](CO)NC(=O)[C@H](NC(=O)[C@@H](Cc1c[nH]c2ccccc12)NC(=O)[C@H](N)CO)[C@H](C)O)C(=O)N[C@H](CCC(=O)O)C(=O)N[C@@H](C(=O)N[C@@H](C(=O)N[C@H](CC(N)=O)C(=O)N[C@H](CC(=O)O)C(=O)N[C@H](CC(C)C)C(=O)N[C@H](CCC(N)=O)C(=O)N[C@H](CCCCN)C(=O)N[C@H](CCCNC(=N)N)C(=O)NCC(=O)N[C@H](CS)C(=O)N[C@H](CC(C)C)C(=O)N[C@H](CCCCN)C(=O)N[C@@H](C(=O)N[C@@H](C(=O)N[C@H](CCC(=O)O)C(=O)N[C@H](CCC(=O)O)C(=O)N[C@H](CCSC)C(=O)N[C@H](Cc1c[nH]c2ccccc12)C(=O)N[C@H](CO)C(=O)O)C(C)C)[C@H](C)CC)[C@H](C)CC)[C@H](C)CC` [(D)-RLN] (H-[dS][dW][dT][dS][dK][dE][dL][dL][dI][dE][dI][dI][dN][dD][dL][dQ][dK][dR]G[dC][dL][dK][dI][dV][dE][dE][dM][dW][dS]-OH; N-terminus and C-terminus assumed): the “degradation by ProtK (in words)” value at Proteinase K (ProtK) is reported as “persists after 5 hours”. On Proteinase K (ProtK) (isolated enzyme proteinase k, pH 7.4, after 6 hours exposure to ProtK, relative to T0, read-out: peptide still detectable), the remaining at 6 h, 20 µM is approximately 90%. For the same compound, at RLN receptor (RXFP1), the “activation of RLN receptor, potency and efficacy (in words)” value was “potency and efficacy comparable to (L)-RLN”.
